According to PubChem BioAssay AID1845196 (Molecular Pharmacology Branch, DTP, NCI, 2023):
pIC50: −log10 of the molar value.

Test system: 292921-168-R tumor spheroid viability
Experiment: Anticancer human tumor 292921-168-R patient-derived pancreatic carcinoma cell line growth inhibition
Details: spheroids with HUVEC and MSC; for pIC50: curve of first compound; for viability, T/C: stronger effect = lower value
Source text: Multicellular complex tumor spheroid response to DNA repair inhibitors in combination with DNA-damaging drugs
This study explores the anticancer activities of DNA-damaging drugs and inhibitors of DNA damage repair, both as single agents and in combinations. Complex tumor spheroids comprised of malignant cells, endothelial cells and mesenchymal stem cells served as an in vitro model for human solid tumors. This model system incorporates physiologically relevant features and patient-derived or established malignant cell lines with clinically relevant genetic alterations from many tumor types. Twenty-six patient-derived or established malignant cell lines were evaluated representing sarcoma, melanoma, small cell lung cancer (SCLC), non-small cell lung cancer (NSCLC), as well as bladder, ovarian and pancreatic cancers. The concentration ranges selected for each drug and investigational agent were based upon clinically achievable concentrations if the clinical Cmax of the agent was known.
Compounds. The drugs and compounds olaparib (NSC753686), talazoparib (NSC767125), berzosertib (NSC777718), elimusertib (NSC800525), nedisertib (NSC802822), VX-984 (NSC792969), AZD-1390 (NSC803789), temozolomide (NSC362856), topotecan (NSC609699), trabectedin (NSC813783), staurosporine (NSC755774), and gemcitabine (NSC613327) were obtained from the National Cancer Institute (NCI) Developmental Therapeutics Program Chemical Repository. The FDA-approved anticancer drug set is available from the Developmental Therapeutics Program at https://dtp.cancer.gov/organization/dscb/obtaining/available_plates.htm. […] The stock solutions were prepared in dimethyl sulfoxide (DMSO, Sigma-Aldrich, St. Louis, MO, cat. D2650) at 400-fold the tested concentration and stored at -70 degrees C. Prior to their use, the stock solutions were diluted in fresh medium and the final DMSO concentration in the assay was 0.25% (v/v). All drugs and investigational agents were tested over a range starting from a high concentration at or near the clinical Cmax and decreasing in half-log increments. If the clinical Cmax for an agent had not been determined, the highest concentration tested was 10 microM.
Cell Lines. The patient-derived cancer cell (PDC) lines: 156681-154-R-J1-PDC, 283228-195-R-J1-PDC, 287954-098-R-J1-PDC, 292921-168-R-J2-PDC, 349418-098-R-PDC, 425362-245-T-J1-PDC, 556581-035-R-J1-PDC, and BL0293-F563-PDC were received from the NCI Patient-Derived Models Repository (PDMR, https://pdmr.cancer.gov). The established cell lines HS-SY-2 (RRID:CVCL_8719), MPNST, and SYO-1 (RRID:CVCL_7146) were obtained from the Sloan Kettering Institute. The alveolar soft parts sarcoma cell line ASPS-1 (RRID:CVCL_S738) was established at the NCI and grown from internal seed stocks. The following established cell lines were purchased from the American Type Culture Collection (ATCC, Manassas, VA): G-401 (ATCC, cat. CRL-1441, RRID:CVCL_0270), SW982 (ATCC, cat. HTB-93, RRID:CVCL_1734), VA-ES-BJ (ATCC, cat. CRL-2138, RRID:CVCL_1785), NCI-H719 (ATCC, cat. CRL-5837, RRID:CVCL_1582), NCI-H196 (ATCC, cat. CRL-5823, RRID:CVCL_1509), NCI-H841 (ATCC, cat. CRL-5845, RRID:CVCL_1595), NCI-H1618 (ATCC, cat. CRL-5879, RRID:CVCL_1480), NCI-H1876 (ATCC, cat. CRL-5902, RRID:CVCL_1503), DMS 114 (ATCC, cat. CRL-2066; RRID:CVCL_1174), NCI-H211 (ATCC, cat. CRL-5824; RRID:CVCL_1529), and SW 1271 (ATCC, cat. CRL-2177, RRID:CVCL_1716). The small cell lung cancer cell line COR-L88 was purchased from Sigma-Aldrich (cat. 92031917-1VL, RRID:CVCL_1141). The non-small cell lung cancer cell lines NCI-H226 (RRID:CVCL_1544) and NCI-H322M (RRID:CVCL_1557) were established at the NCI and grown from internal seed stocks. Pooled donor human umbilical vein endothelial cells (HUVEC, Lonza, cat. CC-2519) and human mesenchymal stem cells (hMSC, Lonza, cat. PT-2501) were purchased from Lonza (Walkersville, MD).
Cell Culture. All cells were maintained in an incubator at 37 degrees C and 5% CO2 with 95% humidity. […]
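Also: spheroids exposed to compounds for 7 days.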

Cc1cc(C)c(CNC(=O)c2cc(-c3ccc(CN4CCOCC4)cc3)cc3c2cnn3C2CCCC2)c(=O)[nH]1 + CC[C@@]1(O)C(=O)OCc2c1cc1n(c2=O)Cc2cc3c(CN(C)C)c(O)ccc3nc2-1
pIC50 (second compound 0.003 µM): < 5.00
pIC50 (second compound 0.00949 µM): < 5.00
pIC50 (second compound 0.03 µM): > 7.50
pIC50 (second compound 0.0949 µM): > 7.50
pIC50 (second compound 0.3 µM): > 7.50
viability, T/C (second compound 0.003 µM, first compound 0.0316 µM): 87.6%
viability, T/C (second compound 0.003 µM, first compound 0.1 µM): 78.4%
viability, T/C (second compound 0.003 µM, first compound 0.316 µM): 84.7%
viability, T/C (second compound 0.003 µM, first compound 1 µM): 82.2%
viability, T/C (second compound 0.003 µM, first compound 3.16 µM): 85.9%
viability, T/C (second compound 0.003 µM, first compound 10 µM): 50.9%
viability, T/C (second compound 0.00949 µM, first compound 0.0316 µM): 76.9%
viability, T/C (second compound 0.00949 µM, first compound 0.1 µM): 77.2%
viability, T/C (second compound 0.00949 µM, first compound 0.316 µM): 76%
viability, T/C (second compound 0.00949 µM, first compound 1 µM): 71.7%
viability, T/C (second compound 0.00949 µM, first compound 3.16 µM): 64.8%
viability, T/C (second compound 0.00949 µM, first compound 10 µM): 53%
viability, T/C (second compound 0.03 µM, first compound 0.0316 µM): 32.5%
viability, T/C (second compound 0.03 µM, first compound 0.1 µM): 37.8%
viability, T/C (second compound 0.03 µM, first compound 0.316 µM): 34.9%
viability, T/C (second compound 0.03 µM, first compound 1 µM): 35.5%
viability, T/C (second compound 0.03 µM, first compound 3.16 µM): 28.6%
viability, T/C (second compound 0.03 µM, first compound 10 µM): 27.8%
viability, T/C (second compound 0.0949 µM, first compound 0.0316 µM): 14.8%
viability, T/C (second compound 0.0949 µM, first compound 0.1 µM): 14.2%
viability, T/C (second compound 0.0949 µM, first compound 0.316 µM): 14.2%
viability, T/C (second compound 0.0949 µM, first compound 1 µM): 13.4%
viability, T/C (second compound 0.0949 µM, first compound 3.16 µM): 14.1%
viability, T/C (second compound 0.0949 µM, first compound 10 µM): 13.1%
viability, T/C (second compound 0.3 µM, first compound 0.0316 µM): 3.97%
viability, T/C (second compound 0.3 µM, first compound 0.1 µM): 4.78%
viability, T/C (second compound 0.3 µM, first compound 0.316 µM): 4.87%
viability, T/C (second compound 0.3 µM, first compound 1 µM): 5.2%
viability, T/C (second compound 0.3 µM, first compound 3.16 µM): 5.56%
viability, T/C (second compound 0.3 µM, first compound 10 µM): 6.73%

Cc1sc2c(c1C)C(c1ccc(Cl)cc1)=NC(CC(=O)Nc1ccc(O)cc1)c1nnc(C)n1-2 (stereo not given) + CC[C@@]1(O)C(=O)OCc2c1cc1n(c2=O)Cc2cc3c(CN(C)C)c(O)ccc3nc2-1
pIC50 (second compound 0.003 µM): 6.41
pIC50 (second compound 0.00949 µM): 6.35
pIC50 (second compound 0.03 µM): > 8.02
pIC50 (second compound 0.0949 µM): > 8.02
pIC50 (second compound 0.3 µM): > 8.02
viability, T/C (second compound 0.003 µM, first compound 0.00949 µM): 92.5%
viability, T/C (second compound 0.003 µM, first compound 0.03 µM): 67.6%
viability, T/C (second compound 0.003 µM, first compound 0.0949 µM): 62%
viability, T/C (second compound 0.003 µM, first compound 0.3 µM): 57.6%
viability, T/C (second compound 0.003 µM, first compound 0.949 µM): 44.1%
viability, T/C (second compound 0.003 µM, first compound 3 µM): 28.5%
viability, T/C (second compound 0.00949 µM, first compound 0.00949 µM): 81.1%
viability, T/C (second compound 0.00949 µM, first compound 0.03 µM): 67.4%
viability, T/C (second compound 0.00949 µM, first compound 0.0949 µM): 63.8%
viability, T/C (second compound 0.00949 µM, first compound 0.3 µM): 56.3%
viability, T/C (second compound 0.00949 µM, first compound 0.949 µM): 43.5%
viability, T/C (second compound 0.00949 µM, first compound 3 µM): 21.6%
viability, T/C (second compound 0.03 µM, first compound 0.00949 µM): 31.5%
viability, T/C (second compound 0.03 µM, first compound 0.03 µM): 31.4%
viability, T/C (second compound 0.03 µM, first compound 0.0949 µM): 29.6%
viability, T/C (second compound 0.03 µM, first compound 0.3 µM): 25%
viability, T/C (second compound 0.03 µM, first compound 0.949 µM): 13.8%
viability, T/C (second compound 0.03 µM, first compound 3 µM): 2.79%
viability, T/C (second compound 0.0949 µM, first compound 0.00949 µM): 9.7%
viability, T/C (second compound 0.0949 µM, first compound 0.03 µM): 8.41%
viability, T/C (second compound 0.0949 µM, first compound 0.0949 µM): 6.38%
viability, T/C (second compound 0.0949 µM, first compound 0.3 µM): 3.78%
viability, T/C (second compound 0.0949 µM, first compound 0.949 µM): 1.73%
viability, T/C (second compound 0.0949 µM, first compound 3 µM): 1.06%
viability, T/C (second compound 0.3 µM, first compound 0.00949 µM): 4.29%
viability, T/C (second compound 0.3 µM, first compound 0.03 µM): 3.58%
viability, T/C (second compound 0.3 µM, first compound 0.0949 µM): 3.16%
viability, T/C (second compound 0.3 µM, first compound 0.3 µM): 1.72%
viability, T/C (second compound 0.3 µM, first compound 0.949 µM): 0.92%
viability, T/C (second compound 0.3 µM, first compound 3 µM): 0.66%
